Measurements published in US6384236B1, “N-(aroyl)glycine hydroxamic acid derivatives and related compounds” (Pfizer Inc, priority 1995, dated 2002).

SMILES: COc1ccc(C(=O)NCC(=O)O)cc1OC1CCCC1 [Example 17]
- melting point: 156 to 168 °C
